Data reported in patent US20010047017A1, “Azole derivatives” (priority 2000, published 2001).
Converted amounts (≈) assume the structure as drawn.

What was measured:
Test in all cases: In vitro antifungal activity (IC80), broth micro-dilution
Format in all cases: cell-based
[1] = system: Absidia corymbifera (CF1001); details: Lichtheimia corymbifera; 80% inhibitory concentration; YNB medium solidified with 0.2% low melting point agarose; 1-2 days at 35° C.; read-out: In vitro antifungal activity (IC80) A. cormybifera (CF1001)
Description: (§1) In vitro antifungal activities of 1-(1H-1,2,4-triazol-1-yl)butan-2-ol derivatives of the formula (I) of the present invention were evaluated by determining the 80% inhibitory concentration (IC80), which was calculated as the lowest concentration of an antifungal to inhibit the growth of fungus to 20% turbidity compared with the drug-free control growth spectrophotometrically. The IC80 values were determined by the broth micro-dilution procedure based on NCCLS Approved Standard with the following minor modifications:
(§2) National Committee for Clinical Laboratory Standards. (1997) Reference method for broth dilution antifungal susceptibility testing for yeasts. Approved standard.
(§3) Yeast Nitrogen Base (YNB; Difco Lab.) supplemented with 1% glucose and 0.25% K2HPO4 was used as testing medium for yeast, the same medium solidified with 0.2% low melting point agarose (BRL) was used for filamentous fungi. Inoculum size was 1-3×10^4 cells/ml, and incubation was performed for 1-2 days at 35° C.
(§4) The inhibitory activity of 1-(1H-1,2,4-triazol-1-yl)butan-2-ol derivatives of the formula (I) against in vitro growth of Candida albicans, Aspergillus fumigatus, Rhizopus oryzea, and Absidia corymbifera is summarized in Table 1 comparing with 2-(2,4-difluorophenyl)-1,3-bis(1H-1,2,4-triazol-1-ylmethyl)propan-2-ol (Fluconazole; Pfizer).

[2] = system: Aspergillus fumigatus (437); details: 80% inhibitory concentration, YNB medium solidified with 0.2% low melting point agarose, 1-2 days at 35° C.
Description: as §1, §2, §3, §4

[3] = system: Candida albicans (CY1002); details: 80% inhibitory concentration, YNB medium with 1% glucose and 0.25% K2HPO4, 1-2 days at 35° C.
Description: as §1, §2, §3, §4

[4] = system: Rhizopus oryzea (CFF1118); details: 80% inhibitory concentration, YNB medium solidified with 0.2% low melting point agarose, 1-2 days at 35° C., read-out: In vitro antifungal activity (IC80) R. oryzea (CFF1118)
Description: as §1, §2, §3, §4

| SMILES | IC80 [1] | IC80 [2] | IC80 [3] | IC80 [4] |
| --- | --- | --- | --- | --- |
| CCOC(=O)c1csc(-c2ccc(-c3csc([C@H](C)[C@](O)(Cn4cncn4)c4ccc(F)cc4F)n3)cc2)n1 [Example 9, 2-(4-{2-[(1R,2R)-2-(2,4-Difluorophenyl)-2-hydroxy-1-methyl-3-(1H-1,2,4-triazol-1-yl)propyl]thiazol-4-yl}phenyl)thiazole-4-carboxylic acid ethyl ester] | 0.17 µg/mL (≈ 0.299 µM) | 0.5 µg/mL (≈ 0.881 µM) | 0.022 µg/mL (≈ 0.0388 µM) | 0.036 µg/mL (≈ 0.0634 µM) |
| CCc1csc(-c2ccc(-c3csc([C@H](C)[C@](O)(Cn4cncn4)c4ccc(F)cc4F)n3)cc2)n1 [Example 7, (2R,3R)-2-(2,4-Difluorophenyl)-3-{4-[4-(4-ethylthiazol-2-yl)phenyl]thiazol-2-yl}-1-(1H-1,2,4-triazol-1-yl)butan-2-ol] | 0.34 µg/mL (≈ 0.649 µM) | 0.39 µg/mL (≈ 0.745 µM) | 0.024 µg/mL (≈ 0.0458 µM) | 0.069 µg/mL (≈ 0.132 µM) |
| Cc1csc(-c2ccc(-c3csc([C@H](C)[C@](O)(Cn4cncn4)c4ccc(F)cc4F)n3)cc2)n1 [Example 6, (2R,3R)-2-(2,4-Difluorophenyl)-3-{4-[4-(4-methylthiazol-2-yl)phenyl]thiazol-2-yl}-1-(1H-1,2,4-triazol-1-yl)butan-2-ol] | 0.33 µg/mL (≈ 0.648 µM) | 0.67 µg/mL (≈ 1.31 µM) | 0.021 µg/mL (≈ 0.0412 µM) | 0.095 µg/mL (≈ 0.186 µM) |
| C[C@@H](c1nc(-c2ccc(-c3csnn3)cc2)cs1)[C@](O)(Cn1cncn1)c1cc(F)ccc1F [Example 4, (2R,3R)-2-(2,5-Difluorophenyl)-3-{4-[4-(1,2,3-thiadiazol-4-yl)phenyl]thiazol-2-yl}-1-(1H-1,2,4-triazol-1-yl)butan-2-ol] | 0.017 µg/mL (≈ 0.0342 µM) | 0.17 µg/mL (≈ 0.342 µM) | 0.011 µg/mL (≈ 0.0222 µM) | 0.0028 µg/mL (≈ 0.00564 µM) |
| Cc1nc(-c2ccc(-c3csc([C@H](C)[C@](O)(Cn4cncn4)c4ccc(F)cc4F)n3)cc2)ns1 [Example 18, (2R,3R)-2-(2,4-Difluorophenyl)-3-(4-{4-[5-methyl-(1,2,4-thiadiazol-3-yl)]phenyl}thiazol-2-yl)-1-(1H-1,2,4-triazol-1-yl)butan-2-ol] | 0.19 µg/mL (≈ 0.372 µM) | 0.28 µg/mL (≈ 0.548 µM) | 0.0031 µg/mL (≈ 0.00607 µM) | 0.046 µg/mL (≈ 0.0901 µM) |
| C[C@@H](c1nc(-c2ccc(-c3nccs3)cc2)cs1)[C@](O)(Cn1cncn1)c1ccc(F)cc1F [Example 5, (2R,3R)-2-(2,4-Difluorophenyl)-3-{4-[4-(thiazol-2-yl)phenyl]thiazol-2-yl}-1-(1H-1,2,4-triazol-1-yl)butan-2-ol] | 0.3 µg/mL (≈ 0.605 µM) | 0.35 µg/mL (≈ 0.706 µM) | 0.0059 µg/mL (≈ 0.0119 µM) | 0.0047 µg/mL (≈ 0.00948 µM) |
| C[C@@H](c1nc(-c2ccc(-c3csnn3)cc2)ns1)[C@](O)(Cn1cncn1)c1cc(F)ccc1F [Example 2, (2R,3R)-2-(2,5-Difluorophenyl)-3-{3-[4-(1,2,3-thiadiazol-4-yl)phenyl]-1,2,4-thiadiazol-5-yl}-1-(1H-1,2,4-triazol-1-yl)butan-2-ol] | 0.047 µg/mL (≈ 0.0945 µM) | 0.036 µg/mL (≈ 0.0724 µM) | 0.0014 µg/mL (≈ 0.00281 µM) | 0.011 µg/mL (≈ 0.0221 µM) |
| C[C@@H](c1nc(-c2ccc(-c3csnn3)cc2)ns1)[C@](O)(Cn1cncn1)c1ccc(F)cc1F [Example 1, (2R,3R)-2-(2,4-Difluorophenyl)-3-{3-[4-(1,2,3-thiadiazol-4-yl)phenyl]-1,2,4-thiadiazol-5-yl}-1-(1H-1,2,4-triazol-1-yl)butan-2-ol] | 0.0057 µg/mL (≈ 0.0115 µM) | 0.11 µg/mL (≈ 0.221 µM) | 0.00093 µg/mL (≈ 0.00187 µM) | 0.0023 µg/mL (≈ 0.00462 µM) |
| C[C@@H](c1nc(-c2ccc(-c3csnn3)cc2)cs1)[C@](O)(Cn1cncn1)c1ccc(F)cc1F [Example 3, (2R,3R)-2-(2,4-Difluorophenyl)-3-{4-[4-(1,2,3-thiadiazol-4-yl)phenyl]thiazol-2-yl}-1-(1H-1,2,4-triazol-1-yl)butan-2-ol] | 0.024 µg/mL (≈ 0.0483 µM) | 0.14 µg/mL (≈ 0.282 µM) | 0.011 µg/mL (≈ 0.0222 µM) | 0.0029 µg/mL (≈ 0.00584 µM) |
| CCc1nc(-c2ccc(-c3csc([C@H](C)[C@](O)(Cn4cncn4)c4ccc(F)cc4F)n3)cc2)ns1 [Example 19, (2R,3R)-2-(2,4-Difluorophenyl)-3-(4-{4-[5-ethyl-(1,2,4-thiadiazol-3-yl) ]phenyl}thiazol-2-yl)-1-(1H-1,2,4-triazol-1-yl)butan-2-ol] | 0.25 µg/mL (≈ 0.477 µM) | 0.3 µg/mL (≈ 0.572 µM) | 0.016 µg/mL (≈ 0.0305 µM) | 0.044 µg/mL (≈ 0.0839 µM) |
